These results are taken from patent publication US20170246586A1, “PROCESS AND APPARATUS FOR SEPARATING ENTRAINED AMINES FROM A GAS STREAM” (Carbonoro B.V., priority 2014, published 2017).

Values after ≈ are worked out from the molar mass of the structure shown.

The conditions of series [1]: J. Sangster, J. Phys. Chem. Ref. Data 18, 111, 1989; cited from earlier work.
Series [2] is described as follows: amine content of the aqueous phase after phase separation of heated MCA/DMCA mixture in water. It counts as physicochemical. Particulars: 3 M MCA:DMCA 1:3 wt./wt. in water, phases separated. The protocol:
Aqueous samples containing MCA and/or DMCA were analysed by UPLC-MS/MS. The UPLC apparatus was a Waters ACQUITY° system. Injection volume was 3 μl. Mobile phase A: 10 mM ammonium acetate, 0.1 wt. % formic acid in water. Mobile phase B: methanol. Column: ACQUITY UPLC® HSB T3, 1.8 μ2.1×50 mm. Column temperature: 30° C. Gradient (Table 1). The mass spectrometer was an AB SCIEX™ API 3200 apparatus.
A mixture (200 ml) of MCA and DMCA (total amine concentration is 3 M; ratio MCA:DMCA is 1:3 wt./wt.≈1:2.67 mol/mol; total absolute amount MCA is 92.8 g/l; total amount of DMCA is 278.4 g/l) in water was heated at various temperatures for 24 h during which phase separation occurred. The phases were separated and the aqueous phase was analysed for determining the amine content. As can be observed from the data in Table 9, the amount of amine decreases with increasing temperature.

Series [3] is described as follows: Water solubility (20° C.). It counts as physicochemical.
For series [4] the following is noted: 20° C.; cited from earlier work.

For orientation: solubility means the dissolved amount per volume that the medium holds. A low value points to little dissolved substance.

On to `NC1CCCCC1` [cyclohexylamine], for which, in series [1], the “measured log P” value is given as 1.49±0.10.
On to `CNC1CCCCC1` [MCA, N-methylcyclohexylamine], for which the “amine content of aqueous phase (MCA)” value in series [2] (heated 24 h at 40 ° C.) turned out to be 6940 mg/L; in series [2] (heated 24 h at 50 ° C.), 5630 mg/L; in series [2] (heated 24 h at 60 ° C.), 5090 mg/L; in series [2] (heated 24 h at 70 ° C.), 4520 mg/L.
In series [3], `CN(C)C1CCCCC1` [DMCA, N,N-dimethylcyclohexylamine] returned a solubility of about 480 mM (≈ 61.1 mg/mL). In series [4], the Water solubility is 54 mg/mL.
